Results on 5 compounds are retold here after patent EP4703357A1, “TRIAZOLYL-CONTAINING COMPOUNDS” (Chia Tai Tianqing Pharmaceutical Group Co., Ltd., priority 2023, dated 2024).

Read-outs that look alike come from different tables or passages of the source.

The term IC50 denotes the concentration needed to halve the response being measured. A higher IC50 goes with lower potency. What is called Cmax is the peak of the concentration-time curve. By Tmax is commonly meant the time at which the peak concentration occurs. In general, half-life refers to the time needed for the level to fall by half in the phase considered. Lower therefore signals rapid decline. Usually AUC(0-inf) stands for the area under the concentration-time curve extrapolated to infinity. A lower AUC(0-inf) goes with less exposure. A word on the clearance: it is the rate of elimination divided by the concentration. Read a high clearance as efficient removal.

In data set [1] the test system is Jurkat cells. The data set can be described thus: Inhibitory activity on Jurkat cell proliferation (CCK-8). The class given is cell-based. The settings on record: Homo sapiens, 72 h incubation. On the procedure:
(§1) Jurkat cells in a good growth state were collected into a centrifuge tube, adjusted to a cell density of 5 × 10^4 cells/mL, and seeded in a 96-well plate (100 µL/well). The cells were incubated overnight in a cell incubator. Compounds were added using a nanoliter pipettor such that the final concentrations of the compounds were 1000 nM-0.46 nM (the addition was performed in duplicate). Meanwhile, a control was set. After another 72 h of incubation in the cell incubator, the assay reagent CCK-8 (manufacturer: Dojindo Laboratories, Beijing; 10 µL/well) was added. After 2 h of incubation in the cell incubator, absorbance was measured at 450 nm on an Envision microplate reader. A four-parameter analysis was performed, a dose-response curve was fit, and IC50 was calculated.

For data set [2], the system named is OCI-LY10 cells. The data set can be described thus: Inhibitory activity on OCI-LY10 cell proliferation (CCK-8). The class given is cell-based. The note with it: Homo sapiens, 72 h incubation. As for the experimental part:
as §1, with “OCI-LY10 cells” for “Jurkat cells”, “of 9” for “of 5”

Data set [3] is described as follows: In vitro liver microsomal stability, mouse. The class given is in vitro ADME. The settings on record: mouse liver microsome 0.5 mg/mL, NADPH, 37 °C, 1 h. As for the experimental part: (§2) Liver microsome incubation samples were prepared by mixing a PBS buffer (pH = 7.4), a liver microsome solution (0.5 mg/mL), a test compound, and an NADPH + MgCl2 solution, and incubated at 37 °C and 300 rpm for 1 h. Zero-hour samples were prepared by mixing a PBS buffer (pH = 7.4), a liver microsome solution (0.5 mg/mL), and a test compound. An acetonitrile solution containing an internal standard was added to the samples, and supernatants were prepared by protein precipitation, diluted, and then assayed by LC/MS/MS. Table 17. In vitro metabolic stability of related compounds in liver microsomes of various species

Data set [4] is described as follows: In vitro liver microsomal stability, human. The class given is in vitro ADME. The settings on record: human liver microsome 0.5 mg/mL, NADPH, 37 °C, 1 h. On the procedure:
as §2

Data set [5] has as its system OCI-LY10 human diffuse large B-cell lymphoma NOD-SCID mouse subcutaneous xenograft tumor model. As to the kind of experiment: Efficacy in OCI-LY10 subcutaneous xenograft tumor model. The class given is in vivo, NOD-SCID mice. The settings on record: for TGI(%): by tumor weight. An excerpt:
Efficacy evaluation in OCI-LY10 human diffuse large B-cell lymphoma NOD-SCID mouse subcutaneous xenograft tumor model • (1) SPF female NOD-SCID mice (source: Jiangsu Huachuang Xinnuo Pharmaceutical Technology Co., Ltd.) were inoculated subcutaneously at the right side armpit with OCI-LY10 human diffuse large B-cell lymphoma cells at 1 × 10^7 cells/mouse. When the mean tumor volume reached about 200 mm^3, the animals were divided into a control group (vehicle control group) and treatment groups (compound groups).
The administration dose included 1 mg/kg, 2 mg/kg, and 4 mg/kg, and the administration frequency was once daily. The day of grouping was defined as day 0, and intragastric administration was started on day 0 for 21 consecutive days.
Alternatively, the administration dose was 4 mg/kg, and the administration frequency was 5 times per week. The day of grouping was defined as day 0, and intragastric administration was started on day 0 five times per week for two consecutive weeks.
The tumor volume was measured once every 3 days, and meanwhile, the mice were weighed and the data were recorded; the general behavior of the mice was observed and recorded every day. After the experiment was completed, the tumors were removed, weighed, and photographed.
The detection index and the calculation formula are as follows: • Tumor volume TV (mm^3) = 1/2 × (a × b^2), wherein a is the long diameter of the tumor, and b is the short diameter of the tumor; • Relative tumor volume RTV = TVt/TV0, wherein TV0 is the tumor volume on day 0, and TVt is the tumor volume at each measurement; • Relative tumor proliferation rate T/C (%) = (TRTV/CRTV) × 100%, wherein TRTV is RTV of the treatment group, and CRTV is RTV of the vehicle control group; • Tumor growth inhibition rate TGI (%) = (1 - TW/TW0) × 100%; wherein TW is the tumor weight of the treatment group, and TW0 is the tumor weight of the vehicle control group; • Weight change rate WCR (%) = (Wtt - Wt0)/Wt0 × 100%, wherein Wt0 is the body weight of the mouse on day 0, and Wtt is the body weight of the mouse at each measurement.

A short description of data set [6]: Mouse pharmacokinetics. The class given is in vivo. The note with it: ICR, plasma, po, 3 mg/kg, Mice administered intragastrically 3 mpk; for AUC(0-t): read-out: AUC (0-24). On the procedure: ICR mice weighing 18-22 g were randomized into groups of 9 mice per group after 3-5 days of acclimatization and then administered intragastrically at a dose of 3 mg/kg.
Plasma samples to be tested were prepared by taking blood from the orbit at time points of 15 min, 30 min, 1 h, 2 h, 4 h, 6 h, 8 h, 10 h, and 24 h.
20 µL of each plasma sample to be tested and a standard curve sample were taken, and an acetonitrile solution containing an internal standard was added. A supernatant was obtained by protein precipitation, diluted, and then assayed by LC/MS/MS.
Pharmacokinetic parameters were fitted using a non-compartmental model.

The nature of data set [7]: Mouse pharmacokinetics. The class given is in vivo, ICR mice. The note with it: ICR, plasma; for AUC(0-t): read-out: AUC (0-24).
Setting [8] is: Table 19, 4mg/kg intragastric, Day 21 of assay.
Where [9] appears, read: 1 mg/kg, Mice administered by single intravenous injection 1 mpk.
The mark [10] stands for this setting: po, 3 mg/kg, Mice administered intragastrically 3 mpk.
Setting [11] is: Table 19, 2mg/kg intragastric, Day 21 of assay.
The mark [12] stands for this setting: Table 20, 4mg/kg intragastric, Day 18 of assay.

For `NC(=O)/C(=C/n1cnc(-c2cc(C(F)(F)F)nc(C(F)(F)F)c2)n1)c1cnc2cccnc2c1` [25(25-A)], the IC50 in data set [1] was ≤ 20 nM. The IC50 in data set [2] was ≤ 40 nM. Moreover, the “Mouse liver microsome Residuals at 60 min (%)” value in data set [3] came to 94.66%. Also, in data set [4], the “Human liver microsome Residuals at 60 min (%)” value turned out to be 110.48%. In data set [5] (setting [8]), the “RTV (mean±SD)” value worked out at 1.8±0.6, the “T/C(%)” value turned out to be 16.7% and the “TV(mm^3) (mean±SD)” value is recorded as 360±105 mm^3. Besides, the “Weight change rate (%) (mean ± SD)” value in data set [5] (Table 19, 4mg/kg intragastric, Day 23 of assay) amounted to 1.7±5.3%. Besides, the “TGI(%)” value in data set [5] (Table 19, 4mg/kg intragastric, Day 23 of assay, * p < 0.05 vs control) was 91.1%*.
For `CC(F)(F)CNc1ncc(/C(=C\n2cnc(-c3cc(C(F)(F)F)nc(C(F)(F)F)c3)n2)C(N)=O)cn1` [3(3-A)], the IC50 in data set [1] was ≤ 20 nM. Moreover, the IC50 in data set [2] was ≤ 40 nM. In data set [3], the “Mouse liver microsome Residuals at 60 min (%)” value amounted to 94.26%. Moreover, the “Human liver microsome Residuals at 60 min (%)” value in data set [4] turned out to be 95.65%. For the same compound, in data set [6], the concentration peaked (Cmax) at 681 ng/mL, the Tmax is 3 h, the half-life is 2.8 h and the AUC(0-t) amounted to 5280 ng·h/mL. Moreover, in data set [7] (setting [9]), the AUC(0-inf) came out at 1570 ng·h/mL, the clearance was 10.6 mL/min/kg, the half-life was 1.66 h and the AUC(0-t) was determined as 1540 ng·h/mL. For the same compound, the AUC(0-inf) in data set [7] (setting [10]) was 5300 ng·h/mL.
In the case of `Cc1ccc(/C(=C\n2cnc(-c3cc(C(F)(F)F)nc(C(F)(F)F)c3)n2)C(N)=O)cn1` [21(21-A)], the “Mouse liver microsome Residuals at 60 min (%)” value in data set [3] is recorded as 99.28%. The “Human liver microsome Residuals at 60 min (%)” value in data set [4] is listed as 94.26%. In addition, in data set [6], the Cmax was determined as 871 ng/mL, the Tmax was determined as 1 h, the half-life is 2.35 h and the AUC(0-t) was 4750 ng·h/mL. Further, in data set [5] (setting [11]), the “RTV (mean±SD)” value is reported as 2.4±0.4, the “T/C(%)” value was determined as 22.2% and the “TV(mm^3) (mean±SD)” value is given as 520±178 mm^3. The “Weight change rate (%) (mean ± SD)” value in data set [5] (Table 19, 2mg/kg intragastric, Day 23 of assay) was -2.0±6.5%. For the same compound, in data set [5] (Table 19, 2mg/kg intragastric, Day 23 of assay, * p < 0.05 vs control), the “TGI(%)” value came to 89.3%*. Further, in data set [7] (setting [9]), the AUC(0-inf) was determined as 1630 ng·h/mL, the clearance was 10.2 mL/min/kg, the half-life is 3.02 h and the AUC(0-t) was found to be 1630 ng·h/mL. The AUC(0-inf) in data set [7] (setting [10]) was 4760 ng·h/mL.
`CC(F)(F)CNc1ncc(/C(=C\n2cnc(-c3cc(C4CC4)nc(C(F)(F)F)c3)n2)C(N)=O)cn1` [15(15-A)]: the IC50 in data set [1] was ≤ 20 nM. For the same compound, the IC50 in data set [2] was ≤ 40 nM. Further, the “Mouse liver microsome Residuals at 60 min (%)” value in data set [3] is listed as 88.38%. Besides, the “Human liver microsome Residuals at 60 min (%)” value in data set [4] was determined as 87.55%. In addition, in data set [6], the concentration peaked (Cmax) at 599 ng/mL, the Tmax stood at 3 h, the half-life is 3.48 h and the AUC(0-t) came to 4600 ng·h/mL. Further, in data set [7] (setting [9]), the AUC(0-inf) turned out to be 1630 ng·h/mL, the clearance is 10.2 mL/min/kg, the half-life is 1.34 h and the AUC(0-t) turned out to be 1620 ng·h/mL. Besides, in data set [7] (setting [10]), the AUC(0-inf) turned out to be 4650 ng·h/mL.
In the case of `NC(=O)/C(=C/n1cnc(-c2cc(C(F)(F)F)nc(C(F)(F)F)c2)n1)c1cnc2ccccc2c1` [11(11-A)], the IC50 in data set [1] was ≤ 20 nM. Also, the IC50 in data set [2] was ≤ 40 nM. Moreover, in data set [3], the “Mouse liver microsome Residuals at 60 min (%)” value was 89.63%. Also, the “Human liver microsome Residuals at 60 min (%)” value in data set [4] turned out to be 86.18%. In addition, in data set [5] (setting [12]), the “RTV (mean±SD)” value turned out to be 1.7±0.2, the “T/C(%)” value was determined as 21.8% and the “TV(mm^3) (mean±SD)” value was found to be 326±52 mm^3. In addition, the “Weight change rate (%) (mean ± SD)” value in data set [5] (Table 20, 4mg/kg intragastric, Day 21 of assay) is given as 0.6±8.1%. Besides, in data set [5] (Table 20, 4mg/kg intragastric, Day 21 of assay, ** p < 0.01 vs control), the “TGI(%)” value is given as 89.7%**.
